This assay addresses T1, CDK2/Cyclin E (Homo sapiens, UniProt P24941).
T1 construct: The open reading frames of CDK2 and Cyclin E were isolated by reverse transcriptase-PCR; made in house; host or cells: SF21 (Spodoptera frugiperda) insect cells, baculovirus co-infection
Nature of the assay: in vitro kinase assay, Scintillation Proximity Assay (SPA), [γ-33-P]-ATP incorporation into GST-Rb. The class given is biochemical. As to conditions: GST-Rb substrate, 0.2 μM ATP, 60 minutes room temperature, read-out: CDK2 inhibitory activity IC50. On the procedure: The compounds were tested in an in vitro kinase assay in 96 well format using Scintillation Proximity Assay (SPA—obtained from Amersham) for measuring incorporation of [γ-33-P]-Adenosine Triphosphate into a test substrate (GST-Retinoblastoma protein; GST-Rb). In each well was placed the compound to be tested (diluted in DMSO and water to correct concentrations) and in control wells either roscovitine as an inhibitor control or DMSO as a positive control. […]
The plates were sealed with Topseal-S plate sealers, left for two hours then spun at 2500 rpm, 1124×g., for 5 minutes. The plates were read on a Topcount for 30 seconds per well. […]
E. coli paste was resuspended in 10 ml/g of NETN buffer (50 mM Tris pH 7.5, 120 mM NaCl, 1 mM EDTA, 0.5% v/v NP-40, 1 mM PMSF, 1 ug/ml leupeptin, 1 ug/ml aprotinin and 1 ug/ml pepstatin) and sonicated for 2×45 seconds per 100 ml homogenate. […] The final product was analysed by Sodium Dodeca Sulfate (SDS) PAGE (Polyacrylamide gel) using 8-16% Tris-Glycine gels (Novex, San Diego, USA).
The open reading frames of CDK2 and Cyclin E were isolated by reverse transcriptase-PCR using HeLa cell and activated T cell mRNA as a template and cloned into the insect expression vector pVL1393 (obtained from Invitrogen 1995 catalogue number: V1392-20). […]
On the technique in general: Scintillation proximity formats need no separation of bound from free tracer.

The term IC50 denotes the concentration needed to halve the response being measured.

Each structure is given as a SMILES string.

As for `Cc1ncc(-c2ccnc(Nc3ccc(C(=O)N4CCOCC4)cc3)n2)n1C(C)C` [Example 14], the IC50 worked out at 3 nM.
